# Experimental data as given in patent publication US9040261B2, “Compounds as L-cystine crystallization inhibitors and uses thereof” (NEW YORK UNIVERSITY, priority 2009, dated 2015).
# “Also recorded” adds a separate entry of the source. Marks after values point to notes of the source that are not given here.
# How the values were obtained:
# [1] = Bulk crystallization of L-cystine in the presence of additives (mass yield); details: for Yield (%) = (collected mass by filtration, >11 μm)/(total mass added) × 100%: 2 mg/L additive, 0.7 g/L L-cystine (pH 6.8), no additive 80, approximate error ±8%, Dihydrochloride
# Method: Alternately, the hexagonal crystals can be obtained by crystallization performed near neutral pH (Sa) The hexagonal form was crystallized from a supersaturated L-cystine solution prepared by adding 70 mg of L-cystine to 100 mL of deionized water (3 mM), and heating under reflux at 100° C. for 20 min with stirring to completely dissolve L-cystine. […] This concentration was used for bulk crystallization studies in the presence of additives so that a measurable amount of bulk crystals could be obtained in a reasonable time. The solution was then allowed to cool slowly with stirring for 75 min. 30 mL aliquots were transferred to separate glass containers, which were then sealed to prevent evaporation and exposure to airborne particulates and stored for 72 hours at room temperature without stirring. […] The crystals retrieved in this manner were used for AFM studies by mounting individual crystals according to the procedure described below.
# Various proteins, poly-amino acids, and molecular mimics of L-cystine were examined as additives. The aforementioned procedure for hexagonal platelet crystallization was repeated. Following the 75 min cooling period, prior to any observable crystallization, the additive was added to the supersaturated L-cystine solution to the desired concentration. […] Crystallization without additive was performed in an identical manner for comparison using a control solution from the same batch. The mass yields of L-cystine crystals were obtained by dividing the mass of L-cystine crystals (collected from growth solution by filtration) by the mass of L-cystine added in the growth solution.
# Additives chosen for these studies were various proteins, poly-amino acids, and molecular mimics of L-cystine (see Table 1). The above procedure for hexagonal platelet crystallization was repeated until completion of the 75 min cooling period, at which point 29.5 g of solution was transferred to a 100 mL beaker containing 0.5 g of separately prepared additive solution to yield net concentrations of 2 mg/L additive and 0.7 g/L L-cystine. Additive solutions were replaced with deionized water of equivalent volume for control measurements. […]
# L-cystine bulk crystallization was investigated in the presence of various polymers, urinary constituents, fish antifreeze proteins (AFPs), and L-cystine derivatives (i.e. structural mimics of L-cystine), which were analyzed as possible growth inhibitors of hexagonal L-cystine. The potency of each additive was assessed by comparing the difference in crystal yield (Table 1), which is equal to the mass of crystals formed in the presence of 2 mg/L additive (isolated with […]) divided by the total mass of L-cystine (700 mg/L).
# [2] = Crystal size and habit by optical microscopy and SEM after bulk crystallization with additive
# Method: Various proteins, poly-amino acids, and molecular mimics of L-cystine were examined as additives. The aforementioned procedure for hexagonal platelet crystallization was repeated. Following the 75 min cooling period, prior to any observable crystallization, the additive was added to the supersaturated L-cystine solution to the desired concentration. The container was sealed and stored for 72 hours at room temperature without stirring, after which the precipitate was collected by vacuum filtration (Whatman Grade 1 filters, >11 μm pores) and were air dried prior to analysis. Crystallization without additive was performed in an identical manner for comparison using a control solution from the same batch. The mass yields of L-cystine crystals were obtained by dividing the mass of L-cystine crystals (collected from growth solution by filtration) by the mass of L-cystine added in the growth solution. The crystals were isolated with 11 μm-pore filters, which were regarded as sufficiently small for reliable capture of the crystals (optical micrographs reveal that the size of crystals was always greater than 50 μm
# An Orion 3 Star pH meter (Thermo Electron Corp.) with Orion 9157BNMD probe was used to measure the pH of L-cystine solutions. Crystal morphology was measured with a Leitz ERGOLUZ optical microscope and a Hitachi 3500 scanning electron microscopy. A thin coating of gold (2 nm) was sputtered on SEM samples and images were acquired at low voltage (2-5 kV) to minimize sample melting. ^1H NMR spectra were recorded using a Bruker AVANCE 400 spectrometer and were routinely run using broadband decoupling. Chemical shifts (δ), expressed in ppm, are referenced to the corresponding residual nuclei in deuterated solvent (D2O). Powder X-ray diffraction (XRD) patterns of isolated crystals were acquired with a Panalytical XPert PRO MPD using a Bragg-Brentano geometry with fixed slits at power settings of 45 kV and 40 mA. A CuKa radiation (0.154 nm) source was used with a 1 degree fixed divergence slit (10 mm beam mask) for incident X-rays and a 1 degree anti-scatter slit Ni filter ( 1/16 degree receiving slit) for diffracted X-rays.
structure (smiles),measurement,setting,value
"COC(=O)[C@@H](N)CSSC[C@H](N)C(=O)OC.Cl.Cl [CDME, Cystine Dimethyl Ester Dihydrochloride]",CDME concentration sufficient to inhibit in vitro L-cystine crystallization,[1]; 2 mM L-cystine,~25 mg/L
same,"Yield (%) = (collected mass by filtration, >11 μm)/(total mass added) × 100%",[1],13%
same,"Yield (%) = (collected mass by filtration, >11 μm)/(total mass added) × 100%",[1]; listed as L-cystine dimethyl ester,13* %
same,CDME amount sufficient to suppress crystallization,"[1]; 25 mg/L CDME in supersaturated L-cystine, 8 μm filter pores",3 wt %
same,mass yield of needles less than the yield of platelets in the absence of additive,[1]; CDME concentration approaching 5 mg/L,more than 70%
same,CDME dosage that may be sufficient to inhibit in vivo L-cystine crystallization,[1]; extrapolated from 2 mM to physiological urine L-cystine (~0.4 mM),less than 4 mg/L
same,needle volume less than hexagonal platelets,[2],~100 times
same,size of hexagonal platelets,"[2]; 1.7 mg/L CDME, 700 mg/L L-cystine, without additive 200-400 μm",50-100 μm
same,number of needles collected,"[2]; 25 mg/L (3 wt %) CDME, Dihydrochloride",negligible; also recorded: Trace number of needles
